Reference: patent US20200305437A1, “SYNERGISTIC ANTIMICROBIAL COMBINATIONS CONTAINING QUATERNARY AMMONIUM BIOCIDE” (LONZA, LLC, priority 2016, published 2020)

What was measured:
Assay in all cases: Minimum inhibitory concentration, microtitre plate doubling dilutions
Format in all cases: cell-based
Escherichia coli = details: for MIC versus organism E.c: biocide alone, visual growth after 24 hours at 37° C.
Description: (§1) Bacteria were grown to stationary phase (18 h) in nutrient broth (approximately 10^9 organisms per ml). A 0.1% (v/v) inoculum was used to seed fresh medium and 100 μl of this was added to each well of a microtitre plate, except for the first well which contained 200 μl. Using doubling dilutions, the concentration of each antimicrobial was varied in each well along the ordinate axis. The presence or absence of growth was determined by visual inspection after 24 hours incubation at 37° C.

Staphylococcus aureus = details: for MIC versus organism S.a: biocide alone, visual growth after 24 hours at 37° C.
Description: as §1

Pseudomonas aeruginosa = details: for MIC versus organism Ps.a: biocide alone, visual growth after 24 hours at 37° C.
Description: as §1

CCCCCCCCCC[N+](C)(C)CCCCCCCCCC.[Cl-] [Bardac 22.70, Didecyldimethyl ammonium chloride]
MIC (Escherichia coli; Escherichia coli, 24 h, read-out: MIC versus organism E.c): 4 µg/mL | MIC (Staphylococcus aureus; Staphylococcus aureus, 24 h, read-out: MIC versus organism S.a): 1 µg/mL | MIC (Pseudomonas aeruginosa; Pseudomonas aeruginosa, 24 h, read-out: MIC versus organism Ps.a): 8 µg/mL

CCCCCCCCCCCCN(CCCN)CCCN [Lonzabac 12.30, N-3-aminopropyl-N-dodecylpropane-1-3-diamine]
MIC versus organism E.c (Escherichia coli): 16 ppm | MIC versus organism S.a (Staphylococcus aureus): 8 ppm | MIC versus organism Ps.a (Pseudomonas aeruginosa): 32 ppm

[Na+].[O-][n+]1ccccc1[S-] [Sodium Omadine, Na pyrithione]
MIC versus organism E.c (Escherichia coli): 500 ppm | MIC versus organism S.a (Staphylococcus aureus): 1 ppm | MIC versus organism Ps.a (Pseudomonas aeruginosa): 16 ppm

Alkyldimethylbenzylammonium chloride [Barquat 4214]
MIC versus organism E.c (Escherichia coli): 8 ppm | MIC versus organism S.a (Staphylococcus aureus): 2 ppm | MIC versus organism Ps.a (Pseudomonas aeruginosa): 32 ppm

Benzyl C12-16 alkyl dimethyl chlorides [Barquat DM-80]
MIC versus organism E.c (Escherichia coli): 12 ppm | MIC versus organism S.a (Staphylococcus aureus): 2 ppm | MIC versus organism Ps.a (Pseudomonas aeruginosa): 32 ppm

Didecyl dimethyl ammonium carbonate/bicarbonate [Carboquat HE]
MIC versus organism E.c (Escherichia coli): 4 ppm | MIC versus organism S.a (Staphylococcus aureus): 1 ppm | MIC versus organism Ps.a (Pseudomonas aeruginosa): 8 ppm

N,N-Didecyl-N-methyl-poly(oxyethyl)ammonium propionate [Bardap 26]
MIC versus organism E.c (Escherichia coli): 4 ppm | MIC versus organism S.a (Staphylococcus aureus): 1 ppm | MIC versus organism Ps.a (Pseudomonas aeruginosa): 16 ppm
